Values after ≈ are worked out from the molar mass of the structure shown. Read-outs that look alike come from different tables or passages of the source. Values belong to the molecule of their own block, whether it stands above or below them.
What was measured:
[1] = test system: vancomycin-resistant E. faecium (ATCC700221) (VREF); experiment: Antimicrobial growth inhibition (MIC), VREF
[2] = test system: colon carcinoma cells HCT-116; experiment: Cytotoxicity assay on HCT-116; assay type: cell-based; conditions: for IC50: Homo sapiens, HCT-116
[3] = test system: amphotericin-resistant Candida albicans (ARCA); experiment: Antifungal growth inhibition (MIC), ARCA; assay type: cell-based; conditions: for MIC: read-out: ARCA (MIC)
[4] = target: dihydrofolate reductase (DHFR) from Escherichia coli (Escherichia coli, UniProt P0ABQ4); experiment: biochemical; assay type: binding; conditions: for ΔTm: unit given in Table 4
Procedure: The thermal shift assay was performed in a control reaction mix containing 100 mM HEPES pH 7.3, 150 mM NaCl, 5× Sypro-orange (an extrinsic fluorophore reporter from Invitrogen), 10 micromolar of the protein dihydrofolate reductase in 20 μl reaction mix. The test reaction contained 1 mM of the said compound apart from all the other constituents as mentioned above. Protein melting curves were obtained from samples aliquoted in 96-well plates using a RealPlex quantitative PCR from Eppendorf. […] A heating ramp of 1 degree Celsius/min was used from 25 degree Celsius to 74 degree Celsius and one data point was acquired for each degree increment. Appropriate dye controls and protein controls were incorporated. All the experiments were done with minimum two replicates and the mean value of the replicate Y was considered for further analysis.
Protein melting curves were obtained from samples aliquoted in 96-well plates using a RealPlex quantitative PCR instrument from Eppendorf (Eppendorf, N.Y., USA), with Sypro orange dye from Invitrogen as the fluorescent probe. A uniform final concentration of 5× (supplied as a 5000× stock solution) was used in all experiments. […] A heating ramp of 1° C./min from 25° C. to 74° C. was used, and one data point acquired for each degree increment. For standardization, different buffers and pH were checked. Thereafter, 100 mM HEPES pH 7.3 and 150 mM NaCl were used in all unfolding experiments. The volume of each reaction was 20 μl, and appropriate dye and protein controls were included. All experiments were done with a minimum of two replicates, with the mean value considered for further analysis. […] An additional control to rule out drug-dye interaction was carried out with all the constituents kept constant except for the protein of interest. The protein/protein-drug curves were reported after subtracting the respective dye alone/drug-dye curves.
Each melting curve was assigned a quality score (Q), the ratio of the melting-associated increase in fluorescence (ΔFmelt) to the total fluorescence range (ΔFtotal). […] Though an arbitrary Q value cutoff was not applied to judge curve quality, the curves were manually curated with Q values reported.
Subsequent to standardization, the validity of the top 1% of […]^comb's predictions on the test set of eight diverse proteins was examined. To be conservative, we focused only on those protein/ligand pairs showing single sigmoidal thermal transition curves. The fit to Boltzmann's equation (Eq. 1) was employed to estimate the melting temperature from the observed intensity, I.
[formula] Imin and Imax are the minimum and maximum intensities; a denotes the slope of the curve at the transition midpoint temperate, Tm. To estimate thermodynamic parameters, both van't Hoff and Gibbs-Helmholtz analyses were done.
[formula] KL(Tm) is the ligand association constant and [L] is the free ligand concentration at Tm([LTm]˜[L]total, when [L]total>>the total concentration of protein. KD is the inverse of KL(Tm).

[5] = test system: methicillin-resistant S. aureus (ATCC 33591) (MRSA); experiment: Antimicrobial growth inhibition (MIC), MRSA
E. coli DH5α = experiment: Antimicrobial growth inhibition (MIC), E. coli DH5α; conditions: Escherichia coli
[6] = test system: several cancer cell lines including melanoma, prostrate, colon, and breast; conditions: cited from earlier work
[7] = test system: multi-drug resistant E. coli SMS-3-4 (ATCC BAA-1743) (MDREC); experiment: Antimicrobial growth inhibition (MIC), MDREC; conditions: Escherichia coli
[8] = Enterococcus faecium, ATCC700221, read-out: VREF (MIC), minimum inhibitory concentration required for 90% clearance
[9] = Table 6, ND: No significant inhibition, read-out: HCT-116 (IC-50), inhibitory concentration for 50% growth inhibition
[10] = Table 5, computed from the thermal shifts obtained, read-out: KD (Approx)
[11] = Candida albicans, Table 5, unit from Table 1, ND: non determinable/no significant inhibition
[12] = Table 5, unit from Table 6, ND: non determinable/no significant inhibition
[13] = Table 6, ND: No significant inhibition

Compound: CN(Cc1cnc2nc(N)nc(N)c2n1)c1ccc(C(=O)N[C@@H](CCC(=O)O)C(=O)O)cc1 [NSC740, methotrexate]
MIC [1, 8]: 500 µg/mL (≈ 1100 µM)
IC50 [2, 9]: 0.048 µg/mL (≈ 0.106 µM)
MIC ([3]; Candida albicans): 500 µg/mL (≈ 1100 µM)

Compound: CCOc1ccc(NC(=O)c2cc3ccccc3cc2O)cc1 [NSC50690]
Kd [4, 10]: 463 µM
ΔTm ([4]; Table 5): 0.23 °C

Compound: Nc1ccc(NC(=O)c2ccc(C(=O)Nc3ccc(N)cc3)cc2)cc1 [NSC55152]
Kd [4, 10]: 73.8 µM
ΔTm ([4]; Table 5): 5.89 °C

Compound: Nc1ccc(-c2nc3nc(N)nc(N)c3nc2-c2ccc(N)cc2)cc1 [NSC61642, 6,7-bis(4-aminophenyl) pteridine-2,4-diamine, reference compound]
Kd [4, 10]: 2.03 µM
MIC [3, 11]: 250 µg/mL (≈ 726 µM)

Compound: O=C(Nc1ccc(Oc2ccc(NC(=O)Nc3ccc([N+](=O)[O-])cc3)cc2)cc1)Nc1ccc([N+](=O)[O-])cc1 [NSC80735]
Kd [4, 10]: 1.71 µM
ΔTm ([4]; Table 5): 18.16 °C
Kd ([4]; text b322, read-out: KD / affinity): 1.7 µM
HCT-116 (IC-50) [2, 12]: 10.9 µg/mL

Compound: C1=Cc2ccccc2Nc2ccccc21 [NSC123458]
Kd [4, 10]: 5.64 µM
ΔTm ([4]; Table 5): 14.17 °C

Compound: COc1cc(NCc2ccccc2O)c2ncccc2c1 [NSC130801]
Kd [4, 10]: 75 µM
ΔTm ([4]; Table 5): 5.84 °C

Compound: CC(C)=C(c1ccc(Cl)cc1)c1c(N)ncnc1N [NSC157522]
Kd [4, 10]: 19.5 µM
ΔTm ([4]; Table 5): 10.13 °C

Compound: O=C(Nc1ccc(C(=O)O)c(O)c1)c1ccccc1 [NSC159686]
Kd [4, 10]: 12.7 µM
ΔTm ([4]; Table 5): 11.52 °C

MIC90 ([5]; Staphylococcus aureus, ATCC33591|MRSA, read-out: MIC (MIC-90, minimum inhibitory concentration for 90% growth inhibition)): 31.2 µg/mL (≈ 103 µM)
MIC ([5]; Staphylococcus aureus, ATCC33591|MRSA, read-out: MRSA (MIC), minimum inhibitory concentration required for 90% clearance): 31.2 µg/mL (≈ 103 µM)
MIC ([5]; Staphylococcus aureus, read-out: MRSA (MIC)): 31.2 µg/mL (≈ 103 µM)
MIC90 ([1]; Enterococcus faecium, ATCC700221, read-out: MIC (MIC-90, minimum inhibitory concentration for 90% growth inhibition)): 31.2 µg/mL (≈ 103 µM)
MIC ([1]; Enterococcus faecium, ATCC700221, read-out: VREF (MIC)): 31.2 µg/mL (≈ 103 µM)
MIC [1, 8]: 31.2 µg/mL (≈ 103 µM)
MIC (E. coli DH5α; read-out: DH5α (MIC)): 7.81 µg/mL (≈ 25.7 µM)
MIC (E. coli DH5α; read-out: DH5α (MIC), minimum inhibitory concentration required for 90% clearance): 7.81 µg/mL (≈ 25.7 µM)
MIC90 (E. coli DH5α; read-out: MIC (MIC-90, minimum inhibitory concentration for 90% growth inhibition)): 7.81 µg/mL (≈ 25.7 µM)
MIC ([7]; ATCCBAA1743, read-out: MDREC (MIC), minimum inhibitory concentration required for 90% clearance): 125 µg/mL (≈ 411 µM)
MIC90 ([7]; ATCCBAA1743, read-out: MIC (MIC-90, minimum inhibitory concentration for 90% growth inhibition)): 125 µg/mL (≈ 411 µM)
MIC90 ([3]; Candida albicans, read-out: MIC (MIC-90, minimum inhibitory concentration for 90% growth inhibition), Table 1, ARCA): 125 µg/mL (≈ 411 µM)
MIC [3, 11]: 125 µg/mL (≈ 411 µM)
Compound: Nc1ccc(Cn2ccc3c4c(N)nc(N)nc4ccc32)cc1 [NSC309401, 7-[(4-aminophenyl)methyl]-7H-pyrrolo[3,2-f]quinazoline-1,3-diamine]
IC50 ([2]; Table 5, unit from Table 6, ND: non determinable/no significant inhibition, read-out: HCT-116 (IC-50)): 0.13 µg/mL (≈ 0.427 µM)
IC50 [2, 9]: 0.13 µg/mL (≈ 0.427 µM)
activity against cancer cell lines (potency not revealed) [6]: has activity

Compound: N/C(CC(=O)Nc1cc(C(F)(F)F)ccc1Cl)=N\O [NSC379536]
Kd [4, 10]: 28.9 µM
ΔTm ([4]; Table 5): 8.86 °C

MRSA (MIC) [5, 12]: 31.25 µg/mL
MRSA (MIC), minimum inhibitory concentration required for 90% clearance [5, 13]: 31.25 µg/mL
VREF (MIC) [1, 12]: 31.25 µg/mL
VREF (MIC), minimum inhibitory concentration required for 90% clearance [1, 13]: 31.25 µg/mL
ARCA (MIC) ([3]; Table 5, unit from Table 1, ND: non determinable/no significant inhibition): 250 µg/mL
Compound: CCc1nc(N)nc(N)c1-c1ccc(N(C)Cc2ccccc2)c([N+](=O)[O-])c1 [NSC382035, methylbezoprim, reference compound]
HCT-116 (IC-50) [2, 12]: 0.182 µg/mL
HCT-116 (IC-50), inhibitory concentration for 50% growth inhibition [2, 13]: 0.182 µg/mL

Compound: C#CCC(Cc1cnc2nc(N)nc(N)c2n1)c1ccc(C(=O)N[C@@H](CCC(=O)O)C(=O)O)cc1 (stereo partly drawn) [NSC754230, pralatrexate, reference compound]
Kd [4, 10]: 0.499 µM
IC50 [2, 9]: < 0.031 µg/mL

From US9920058B2, “Molecules with potent DHFR binding affinity and antibacterial activity” (Georgia Tech Research Corporation, priority 2013, dated 2018)
